Test results: patent US20250032569A1, “COMPOSITION, IN PARTICULAR COSMETIC FORMULATION, COMPRISING A VERBASCOSIDE EXTRACT” (MEDENA AG, priority 2021, published 2025)

What was measured:
[1] = organic (synthetic) chemical sunscreens, Table 1; cited from earlier work
[2] = In vitro spectrophotometric SPF calculated by the Sayre equation (Eq. 1); format: physicochemical
Method: Each sample (1 ml) was placed in a 1 cm quartz cell. The absorbance was measured between 250-600 nm at an interval of every 1 nm using a Varian UV/Vis spectrophotometer (Cary 50 Scan). The following parameters were measured and calculated for each sample assuming standard application to the skin—2 mg/cm^2: • the SPF values. • the critical wavelength λC • the UVA/UVB ratio 1. […]
Each sample (1 ml) was placed in a 1 cm quartz cell. The absorbance was measured between 250-600 nm at an interval of every 1 nm using a Varian UV/Vis spectrophotometer (Cary 50 Scan). The following parameters were measured and calculated for each sample assuming standard application to the skin—2 mg/cm^2: • the SPF values. • the critical wavelength λC • the UVA/UVB ratio
The SPF values in vitro were calculated according to the method described by Sayre et al., (Sayre, R M; Agin, P P; LeVee, G J; Marlowe, E. A comparison of in vivo and in vitro testing of sunscreening formulas, Photochem. Photobiol. 1979, 29, 559-566). The calculation was done using Equation 1: […]
where Ss(λ) is the spectral irradiance, Ser(λ) is the CIE erythema action spectrum and T(λ) is the transmission of the sunscreen. The values of Ss(λ) and Ser(λ) were taken from the literature (B. L. Diffey, J. Robson. A new substrate to measure sunscreen protection factors throughout the ultraviolet spectrum, J. Soc. Cosmet. Chem. 1989, 40, 127-133). […]
SPF values were calculated using Eq. 1 for sun protective cosmetics applied at 2 mg/cm^2 (standard application).
The same methods and equations as in the case of plant extracts were applied.
Solutions of sunscreens at concentrations 0.001% were prepared in duplicate and UV-visible absorption spectra were recorded over the range of 250-600 nm (FIG. 1). On the basis of these spectra, the transmission of the sunscreen (T) was found from monochromatic absorbance values at wavelength λ: T=10^−A(λ).
The SPF in vitro was calculated according to the method described by Sayre et al., (Sayre, R M; Agin, P P; LeVee, G J; Marlowe, E. A comparison of in vivo and in vitro testing of sunscreening formulas, Photochem. Photobiol. 1979, 29, 559-566) following equation 1: […]
where Ss(λ) is the spectral irradiance, Ser(λ) the CIE erythema action spectrum and T(λ) the trans-mission of the sunscreen. Data for Ss(λ) and Ser(λ) are available in the literature (B. L. Diffey, J. Robson. A new substrate to measure sunscreen protection factors throughout the ultraviolet spectrum, J. Soc. Cosmet. Chem. 1989, 40, 127-133).
The SPF values were calculated using Eq 1 with the application conditions 2 mg/cm^2 (Standard application recommended by the European Agency).
The SPF value for lotions were calculated using Eq. 1 for three application conditions at 2 mg/cm^2 (standard application), 2.5 mg/cm^2 and 3 mg/cm^2. In the same Table 22, critical wavelength and the UVA/UVB ratios are shown.

[3] = SPF calculated by modified Sayre method; format: physicochemical
Source text: In the following Table 20, there are SPF values obtained in vitro spectrophotometrically, which have been calculated by a classical Sayre method (Sayre, R M; Agin, P P; LeVee, G J; Marlowe, E. A comparison of in vivo and in vitro testing of sunscreening formulas, Photochem. Photobiol. 1979, 29, 559-566) and modified Sayre method, which gives results similar to those obtained in the in vivo tests recommended by COLIPA.
• (1) For water insoluble chemical filters, the modified Sayre method gives results close to those calculated by Simulator-Calculator (BASF) and the in vivo tests. The Simulator-Calculator uses the modified Sayre method assuming an exponentiation equal to 0.827 (X^0.827). • (2) For water soluble natural filters, the same modified Sayre method would give results close to those obtained by the in vivo tests (predicted by Simulator-Calculator). Examples of Cosmetic Compositions with Fully Natural Sun Protective Factors • 1. Sun protective lotion SPF 50+, high UV-A protection • 2. Sun protective cream SPF 50+, high UV-A protection • 3. Sun protective serum for pregnant and milking women SPF 50+, high UV-A protection • 4. Sun protective milk for babies SPF 50+, high UV-A protection • 5. Sun protective lotion SPF 20-30, high UV-A protection for people with highly sensitive skin E. Analysis of Sun Protective Parameters of Two Lotions and Cream Containing Lippia citriodora Extract with 40% of Verbascoside.

[4] = UVA/UVB ratio from absorption spectra (Eq. 3) and Boots UVA Star Rating; format: physicochemical; settings: for ratio UVA/UVB: chemical sunscreen, no concentration stated
Method: Critical Wavelength (λC) and the UVA/UVB ratios were also calculated from the absorption spectra and were collected in Table 2. […] According to these International indications, aqueous solutions of Haberlea rhodopensis with different concentrations of myconoside can be attributed to the group of good protection (2 UVA Star Rating).
In order to further characterize solutions as skin photo-protectors from UVA, the UVA/UVB ratio was calculated using Eq. 3: […]
In order to characterize the ability of creams to protect skin against UVA the UVA/UVB ratio was calculated using Eq. 3: […]

[5] = Critical wavelength (λC) from absorption spectra (Eq. 2); format: physicochemical; settings: for critical wavelength: chemical sunscreen, no concentration stated
Method: The Critical Wavelength λC is the wavelength, where the area under the absorbance spectrum for the irradiated product from 290 nm to λC is equal to 90% of the integral value of the absorbance spectrum from 290 to 400 nm and was calculated using Eq. 2:
where A (λ)=monochromatic absorbance values at wavelength λ. The critical wavelength was determined for all samples in order to assess a degree of UVA protection. In cases where the critical wavelength is lower than 370 nm, the protection from UVA is less evident.
The Critical Wavelength λC value for the test product was defined as that wavelength where the area under the absorbance spectrum of the sample from 290 nm to λC is 90% of the integral of the absorbance spectrum from 290 to 400 nm and is calculated using Eq. 2:
[formula] • A(λ)=monochromatic absorbance values at wavelength λ

[6] = UV filter 0.5% in sun protective cosmetic (Table 20)
[7] = UV filter 1.0% in sun protective cosmetic (Table 20)
[8] = UV filter 2.5% in sun protective cosmetic (Table 20)
[9] = UV filter 5% in sun protective cosmetic (Table 20)
[10] = UV filter 10% in sun protective cosmetic (Table 20)
[11] = chemical UV filter 0.5% in sun protective solution (Tables 12-19)
[12] = chemical UV filter 1% in sun protective solution (Tables 12-19)
[13] = chemical UV filter 2.5% in sun protective solution (Tables 12-19)
[14] = chemical UV filter 5% in sun protective solution (Tables 12-19)
[15] = chemical UV filter 10% in sun protective solution (Tables 12-19)
[16] = chemical UV filter 0.5% in sun protective solution
[17] = chemical UV filter 1% in sun protective solution
[18] = chemical UV filter 2.5% in sun protective solution
[19] = chemical UV filter 5% in sun protective solution
[20] = chemical UV filter 10% in sun protective solution
[21] = UV filter 0.5% in sun protective cosmetic
[22] = UV filter 1.0% in sun protective cosmetic
[23] = UV filter 2.5% in sun protective cosmetic
[24] = UV filter 5% in sun protective cosmetic
[25] = UV filter 10% in sun protective cosmetic

Row | Critical wavelength (λC) [5, 16] | Critical wavelength (λC) [5, 17] | Critical wavelength (λC) [5, 18] | Critical wavelength (λC) [5, 19] | Critical wavelength (λC) [5, 20] | critical wavelength [5] | SMILES | SPF values calculated by the Sayre equation [2, 6] | SPF values calculated by the Sayre equation [2, 7] | SPF values calculated by the Sayre equation [2, 8] | SPF values calculated by the Sayre equation [2, 9] | SPF values [2, 11] | SPF values [2, 12] | SPF values [2, 13] | SPF values [2, 14] | SPF values [2, 15] | SPF values calculated by Modified Sayre [3, 21] | SPF values calculated by Modified Sayre [3, 22] | SPF values calculated by Modified Sayre [3, 23] | SPF values calculated by Modified Sayre [3, 24] | other results
1 | – | – | – | – | – | – | CCCCC(CC)COc1ccc(-c2nc(-c3ccc(OC)cc3)nc(-c3ccc(OCC(CC)CCCC)cc3O)n2)c(O)c1 (stereo not shown) [Tinosorb S] | – | – | – | – | – | – | – | – | – | – | – | – | – | Absorbs UV-A [1]: UV-A; Absorbs UV-B [1]: UV-B
2 | – | – | – | – | – | – | C[C@@H]1O[C@@H](O[C@@H]2[C@@H](O)[C@H](OCCc3ccc(O)c(O)c3)O[C@H](CO)[C@H]2OC(=O)/C=C/c2ccc(O)c(O)c2)[C@H](O)[C@H](O)[C@H]1O [Verbascoside, β-(3′,4′-dihydroxyphenyl)ethyl-O-α-L-rhamnopyranosyl (1->3)-β-D-(4-O-caffeoyl)-glucopyranoside] | – | – | – | – | – | – | – | – | – | – | – | – | – | SPF values calculated by the Sayre equation ([2]; verbascoside or its analogues from plant extracts 1.0% in sun protective cosmetic (Table 20)): 3.9; SPF values calculated by the Sayre equation ([2]; verbascoside or its analogues from plant extracts 2.5% in sun protective cosmetic (Table 20)): 23; SPF values calculated by the Sayre equation ([2]; verbascoside or its analogues from plant extracts 5% in sun protective cosmetic (Table 20)): 110; SPF values calculated by the Sayre equation ([2]; verbascoside or its analogues from plant/plant cell culture extracts 0.5% in sun protective cosmetic (Table 20)): 2.0; SPF values calculated by Modified Sayre ([3]; verbascoside or its analogues from plant extracts 0.5% in sun protective cosmetic, SPF = a*X^0.827): 2.2; SPF values calculated by Modified Sayre ([3]; verbascoside or its analogues from plant extracts 1.0% in sun protective cosmetic): 3.9; SPF values calculated by Modified Sayre ([3]; verbascoside or its analogues from plant extracts 2.5% in sun protective cosmetic): 8.3; SPF values calculated by Modified Sayre ([3]; verbascoside or its analogues from plant extracts 5% in sun protective cosmetic): 14.8; SPF values calculated by Modified Sayre ([3]; verbascoside or its analogues from plant extracts 8% in sun protective cosmetic): 22; SPF values calculated by Modified Sayre ([3]; verbascoside or its analogues from plant extracts 10% in sun protective cosmetic): 26; SPF values calculated by Modified Sayre ([3]; verbascoside or its analogues from plant extracts 12% in sun protective cosmetic): 31; SPF values calculated by Modified Sayre ([3]; verbascoside or its analogues from plant extracts 20% in sun protective cosmetic): 52
3 | – | – | – | – | – | – | CC(C)(C)CC(C)(C)c1cc(Cc2cc(C(C)(C)CC(C)(C)C)cc(-n3nc4ccccc4n3)c2O)c(O)c(-n2nc3ccccc3n2)c1 [Tinosorb M] | – | – | – | – | – | – | – | – | – | – | – | – | – | Absorbs UV-B [1]: UV-B
4 | – | – | – | – | – | – | CCCCCCOC(=O)c1ccccc1C(=O)c1ccc(N(CC)CC)cc1O [Uvinul A plus] | – | – | – | – | – | – | – | – | – | – | – | – | – | Absorbs UV-A [1]: UV-A
5 | 342 nm | 342 nm | 342 nm | 342 nm | 342 nm | 342 nm | CCCCC(CC)COC(=O)C(C#N)=C(c1ccccc1)c1ccccc1 (stereo not shown) [octocrylene, Octocrylene] | 1.9 | 4 | 13 | 26.5 | 10 | 25 | 42 | 61 | 90 | 1.6 | 2.6 | 4.7 | 7.4 | SPF values calculated by the Sayre equation [2, 10]: 36.8; UVA/UVB [4, 16]: 0.22; UVA/UVB [4, 17]: 0.22; UVA/UVB [4, 18]: 0.22; UVA/UVB [4, 19]: 0.22; UVA/UVB [4, 20]: 0.22; ratio UVA/UVB [4]: 0.22; SPF values calculated by Modified Sayre [3, 25]: 11.7
6 | 341 nm | 341 nm | 341 nm | 341 nm | 341 nm | 341 nm | CCCCC(CC)COC(=O)c1ccc(Nc2nc(Nc3ccc(C(=O)OCC(CC)CCCC)cc3)nc(Nc3ccc(C(=O)OCC(CC)CCCC)cc3)n2)cc1 (stereo not shown) [ethylhexyl triazone, Ethylhexyl triazone] | 2.8 | 8 | 69 | 389 | 5.2 | 14 | 33 | 74 | 271 | 2.8 | 4.1 | 6.8 | 10.1 | SPF values ([2]; chemical UV filter 2.5% in sun protective solution (Tables 12-19), listed as ethyl hexyl triazone): 44; UVA/UVB [4, 16]: 0.21; UVA/UVB [4, 17]: 0.21; UVA/UVB [4, 18]: 0.21; UVA/UVB [4, 19]: 0.21; UVA/UVB [4, 20]: 0.21; ratio UVA/UVB [4]: 0.21
7 | 337 nm | 337 nm | 337 nm | 337 nm | 337 nm | 337 nm | CCCCC(CC)COC(=O)c1ccc(Nc2nc(Nc3ccc(C(=O)NC(C)(C)C)cc3)nc(Nc3ccc(C(=O)OCC(CC)CCCC)cc3)n2)cc1 (stereo not shown) [diethylhexyl butamido triazone, Diethylhexyl butamido triazone] | 3.2 | 9.0 | 39 | 98 | 4.1 | 10 | 23 | 44 | 131 | 3.2 | 4.6 | 7.4 | 10.6 | SPF values calculated by the Sayre equation [2, 10]: 394; SPF values ([2]; chemical UV filter 10% in sun protective solution (Tables 12-19), listed as ethylhexyl butamido triazone): 137; SPF values calculated by Modified Sayre [3, 25]: 15.3
